According to the NIST ThermoML archive (doi:10.1016/j.fluid.2009.06.008):

Assay: mn = molality of the nth substance listed, in mol/kg
Conditions: 101 kPa, Liquid; for viscosity: Capillary tube (Ostwald / Ubbelohde) method; for mass density: Vibrating tube method

O=C[C@H](O)[C@@H](O)[C@H](O)[C@H](O)CO [D-glucose] + O
Conditions	mass density [kg/m3]	viscosity [mPa·s]
278.15 K, m1 = 0.2	1019.65	1.694
278.15 K, m1 = 0.4	1031.6	1.873
278.15 K, m1 = 0.6	1043.55	2.074
278.15 K, m1 = 0.8	1055.51	2.3
278.15 K, m1 = 1	1067.46	2.536
278.15 K, m1 = 1.2	1079.41	2.802
283.15 K, m1 = 0.2	1017.74	1.451
283.15 K, m1 = 0.4	1029.58	1.599
283.15 K, m1 = 0.6	1041.42	1.766
283.15 K, m1 = 0.8	1053.25	1.953
283.15 K, m1 = 1	1065.09	2.147
283.15 K, m1 = 1.2	1076.93	2.374
288.15 K, m1 = 0.2	1015.54	1.258
288.15 K, m1 = 0.4	1027.28	1.383
288.15 K, m1 = 0.6	1039.02	1.524
288.15 K, m1 = 0.8	1050.75	1.682
288.15 K, m1 = 1	1062.49	1.849
288.15 K, m1 = 1.2	1074.22	2.029
293.15 K, m1 = 0.2	1013.09	1.104
293.15 K, m1 = 0.4	1024.74	1.21
293.15 K, m1 = 0.6	1036.38	1.329
293.15 K, m1 = 0.8	1048.03	1.46
293.15 K, m1 = 1	1059.67	1.619
293.15 K, m1 = 1.2	1071.32	1.754
298.15 K, m1 = 0.2	1010.39	0.9748
298.15 K, m1 = 0.4	1023.11	1.066
298.15 K, m1 = 0.6	1035.26	1.166
298.15 K, m1 = 0.8	1046.85	1.272
298.15 K, m1 = 1	1057.94	1.395
298.15 K, m1 = 1.2	1068.55	1.528
303.15 K, m1 = 0.2	–	0.8685
303.15 K, m1 = 0.4	1018.93	0.9469
303.15 K, m1 = 0.6	1030.42	1.035
303.15 K, m1 = 0.8	1041.92	1.132
303.15 K, m1 = 1	1053.41	1.236
303.15 K, m1 = 1.2	1064.9	1.343
308.15 K, m1 = 0.2	1004.38	0.7811
308.15 K, m1 = 0.4	1015.81	0.8496
308.15 K, m1 = 0.6	1027.24	0.9264
308.15 K, m1 = 0.8	1038.67	1.01
308.15 K, m1 = 1	1050.1	1.096
308.15 K, m1 = 1.2	1061.53	1.194
